One series concerns Mus musculus. As to the kind of experiment: Antinociceptive activity against carrageenan-induced inflammatory C57BL/6 mouse model assessed as reduction in hyperalgesia by measuring increase in paw withdrawal threshold at 20 mg/kg, po measured at 5 hrs and 2 hrs following carrageenan and compound challenge respectively by plantar esthesiometer analysis. It is filed as functional, organism-based.

The nature of series [1]: AUC(0 to t) in BALB/c mouse at 5 mg/kg, po. As to conditions: in vivo. It is filed as ADME, organism-based. Details: dose 5 mg/kg, route po.
For another series, the system named is CHO. As to the kind of experiment: Agonist activity at CB2 receptor W1945.43A mutant (unknown origin) expressed in CHO cells assessed as inhibition of forskolin-stimulated intracellular cAMP accumulation measured after 30 mins by Glosensor assay. The class given is cell-based. As to conditions: Homo sapiens. A general note: Cyclic AMP is a second messenger, typically raised through Gs and lowered through Gi signalling.

Series [2] in a line: Metabolic stability of the compound in mouse liver microsomes assessed as parent compound remaining at 10 uM measured after 60 mins. It is filed as ADME, Microsome. The note with it: read-out: Stability. In general terms: Liver microsomes are vesicles of endoplasmic reticulum, rich in cytochrome P450 enzymes.
Series [3] deals with T1, Cannabinoid receptor 2 (Homo sapiens, UniProt P34972). The series is described as follows: Agonist activity at N-terminal HA/Flag-tagged CB2 receptor (unknown origin) expressed in CHO cells assessed as increase in Akt phosphorylation measured after 15 mins by western blot analysis. It is filed as functional, cell-based. As to conditions: filed as agonist, dose 12-300 nM.
T1 sequence (P34972 whole entry): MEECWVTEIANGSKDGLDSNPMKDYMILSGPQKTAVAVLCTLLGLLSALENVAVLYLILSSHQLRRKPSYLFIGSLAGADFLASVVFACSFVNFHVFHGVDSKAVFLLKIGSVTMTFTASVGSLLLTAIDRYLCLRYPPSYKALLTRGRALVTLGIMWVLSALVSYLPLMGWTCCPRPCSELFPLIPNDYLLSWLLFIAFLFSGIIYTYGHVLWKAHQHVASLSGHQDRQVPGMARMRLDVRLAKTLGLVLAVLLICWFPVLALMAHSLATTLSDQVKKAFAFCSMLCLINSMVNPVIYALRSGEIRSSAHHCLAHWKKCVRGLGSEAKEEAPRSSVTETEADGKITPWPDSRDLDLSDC

Series [4] concerns the target T1, Cannabinoid receptor 2. As to the kind of experiment: Agonist activity at human CB2 receptor expressed in CHO cells assessed as inhibition of forskolin-stimulated intracellular cAMP accumulation measured after 30 mins by Glosensor assay relative to control. It is filed as functional, cell-based. The note with it: filed as agonist.
A short description of series [5]: Protein binding in rat plasma by dialysis method. It is filed as ADME, cell-free. As to conditions: read-out: PPB (converted).
Series [6] has as its target T1, Cannabinoid receptor 2. As to the kind of experiment: Agonist activity at LgBiT-fused CB2 receptor (unknown origin) coexpressed with miniGalphai-SmBiT in HEK293T cells assessed as G-protein recruitment measured after 10 mins in presence of CB2 receptor antagonist, AM630 by NanoBiT luciferase assay. The class given is functional, cell-based.
A short description of series [7]: Half life in BALB/c mouse at 5 mg/kg, ip. The note with it: in vivo. The class given is ADME, organism-based.
The nature of series [8]: Cmax in BALB/c mouse at 5 mg/kg, ip. It is filed as ADME, organism-based. Details: dose 5 mg/kg, route ip. As to conditions: in vivo.
For series [9], the target named is T1, Cannabinoid receptor 2. As to the kind of experiment: Agonist activity at LgBiT-fused CB2 receptor (unknown origin) coexpressed with miniGalphai-SmBiT in HEK293T cells assessed as G-protein recruitment by measuring complementation measured after 10 mins by NanoBiT luciferase assay. The class given is functional, cell-based.
Series [10] is described as follows: Half life in mouse liver microsomes at 10 uM. The class given is ADME, Microsome.

The values that follow come from ChEMBL document CHEMBL5344413, “Discovery of 4-(1,2,4-Oxadiazol-5-yl)azepan-2-one Derivatives as a New Class of Cannabinoid Type 2 Receptor Agonists for the Treatment of Inflammatory Pain” (J Med Chem, 2023).

A word on the AUC(0-t): it is the area under the concentration-time curve up to a stated or last time point. Low values mean less exposure, high ones more exposure. One may read the Emax as the size of the effect at its maximum, as opposed to the concentration needed. In general, half-life refers to how long it takes for the measured level to halve. A high value points to slow decline. In general, Cmax refers to the peak of the concentration-time curve. One may read the EC50 as the concentration that produces a half-maximal response.

Structures are written as SMILES. Active and inactive are the calls of the source.

On to `O=C1CC(c2nc(-c3ccc(F)c4cn[nH]c34)no2)CCCN1c1ccc(F)cc1` (configuration not stated), for which, in the series on Mus musculus, the outcome was Active. In series [1], this compound registered an AUC(0-t) of 1660 ng·h/mL. For the same compound, the outcome with CHO and at Cannabinoid receptor 2 [6] was inactive. Moreover, in series [2], the remaining at 1 h, 10 µM came out at 3.15%. At Cannabinoid receptor 2 [3], the Activity entry is “Dose-Dependent Effect”. Further, the Emax at Cannabinoid receptor 2 [4] stood at 87%. For the same compound, in series [5], the fraction unbound was 0.074. Also, in [7], the half-life was 56.4 min. The compound also came in with a Cmax in series [8] of 1080 ng/mL. At Cannabinoid receptor 2 [9], the EC50 turned out to be 84.7 nM. This compound also gave a half-life at 10 µM in series [10] of 13.1 min.
